According to US20260308172A1, “TRICYCLIC COMPOUNDS FOR TREATMENT OF BACTERIAL INFECTIONS” (priority 2023, published 2026):
≈ marks a conversion by molar mass, not a printed value.

Legend:
[1] = system: Klebsiella pneumonia ATCC 43816; test: Minimal Inhibitory Concentration (MIC) assay, Klebsiella pneumonia ATCC 43816; type: cell-based; settings: Klebsiella pneumoniae, ATCC43816, 20 h, read-out: MIC Klebsiella pneumoniae ATCC43816
Procedure, shortened: (§1)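 Broth microdilution in cation-adjusted Mueller Hinton broth with 2-fold serial compound dilutions, inoculum 5×10^5 CFU/mL. Plates incubated 20 h at 35 °C in ambient air. MIC (μg/mL) is the lowest concentration preventing visible growth; K. pneumoniae 43816 is a rifampin-resistant mutant.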

[2] = system: efflux-deficient E. coli strains; settings: in words; Bioorganic Chemistry 102 (2020) 104055; cited from earlier work
[3] = Human Microsome Stability Assay; type: in vitro ADME; settings: 1 μM compound, 0.5 mg/mL liver microsomal protein, 1 mM NADPH, pH 7.4, 37° C., 0-30 minutes; for CLint scaled at 1 µM: human, liver microsomes, read-out: Clearance of Human microsome
Experimental: The human microsomal stability assay is used for early assessment of metabolic stability of compounds of present invention in human liver microsomes. Human liver microsomes (Cat. NO.: 452117, Corning, USA) were pre-incubated with test compound for 10 minutes at 37° C. in 100 mM potassium phosphate buffer, pH 7.4. The reactions were initiated by adding NADPH regenerating system. The final incubation mixtures contained 1 μM compound, 0.5 mg/mL liver microsomal protein, 1 mM MgCl2 and 1 mM NADPH in 100 mM potassium phosphate buffer, pH 7.4. After incubation times of 0, 3, 6, 9, 15 and 30 minutes at 37° C., 300 μL of cold acetonitrile (including internal standard) was added to 100 μL incubation mixture to terminate the reaction. Following precipitation and centrifugation, the amount of compound remaining in the samples were determined by LC-MS/MS. Controls of no NADPH regenerating system at zero and 30 minutes were also prepared and analyzed.

LPS synthesis pathway = settings: in words; Bioorganic Chemistry 102 (2020) 104055; cited from earlier work
[4] = system: Escherichia coli ATCC 25922; test: Minimal Inhibitory Concentration (MIC) assay, Escherichia coli ATCC 25922; type: cell-based; settings: ATCC25922, 20 h, read-out: MIC Escherichia coli ATCC25922
Procedure, shortened: as §1

| Structure (SMILES) | MIC [1] | antibiotic activity against efflux-deficient E. coli strains [2] | CLint scaled at 1 µM [3] | LPS synthesis pathway inhibition activity (LPS synthesis pathway) | MIC [4] | Clearance of Human microsome [3] |
| --- | --- | --- | --- | --- | --- | --- |
| CC(=O)N1CCc2cc(S(=O)(=O)N3CCN(c4cc(Cl)cc(C(F)(F)F)c4)CC3)ccc21 [Compound F-1, reference compound] | > 24 µg/mL | displaying antibiotic activity against efflux-deficient E. coli strains | 14 mL/min/kg | having LPS synthesis pathway inhibition activity | > 24 µg/mL |  |
| NCCCNC(=O)[C@H]1CC[C@H](C(F)(F)c2cc(Cl)nc(N3CCN(S(=O)(=O)c4ccc5c(c4)OC[C@H]4[C@H](CO)OC(=O)N54)CC3)c2)CC1 [Example 049, 4-[[2-[4-[[(3R,3aS)-3-(hydroxymethyl)-1-oxo-3a,4-dihydro-3H-oxazolo[4,3-c][1,4]benzoxazin-7-yl]sulfonyl]piperazin-1-yl]-6-chloro-4-pyridyl]-difluoro-methyl]-N-(3-aminopropyl)cyclohexanecarboxamide] | 0.29 µg/mL (≈ 0.407 µM) |  |  |  | 0.3 µg/mL (≈ 0.421 µM) | 6.2 mL/min/kg |
| NCCC(=O)NC1CCC(Oc2cc(Cl)nc(N3CCN(S(=O)(=O)c4ccc5c(c4)OC[C@H]4[C@H](CO)OC(=O)N54)CC3)c2)CC1 (stereo partly drawn) [Example 051, N-[4-[[2-[4-[[(3R,3aS)-3-(hydroxymethyl)-1-oxo-3a,4-dihydro-3H-oxazolo[4,3-c][1,4]benzoxazin-7-yl]sulfonyl]piperazin-1-yl]-6-chloro-4-pyridyl]oxy]cyclohexyl]-3-amino-propanamide] | 3.65 µg/mL (≈ 5.49 µM) |  | 13.1 mL/min/kg |  | 3.7 µg/mL (≈ 5.56 µM) |  |
| NCCN(CCN)CC(=O)N1CCC(C(F)(F)c2cc(Cl)nc(N3CCN(S(=O)(=O)c4ccc5c(c4)OC[C@@H]4[C@H](CO)OC(=O)N54)CC3)c2)CC1 [Example 052, (3R,3aR)-7-[4-[4-[[1-[2-[bis(2-aminoethyl)amino]acetyl]-4-piperidyl]-difluoro-methyl]-6-chloro-2-pyridyl]piperazin-1-yl]sulfonyl-3-(hydroxymethyl)-3a,4-dihydro-3H-oxazolo[4,3-c][1,4]benzoxazin-1-one] | 1.36 µg/mL (≈ 1.8 µM) |  | 6.4 mL/min/kg |  | 0.68 µg/mL (≈ 0.898 µM) |  |
| NCC(=O)N1CCC(C(F)(F)c2cc(Cl)nc(N3CCN(S(=O)(=O)c4ccc5c(c4)OC[C@@H]4[C@H](CO)OC(=O)N54)CC3)c2)CC1 [Example 053, (3R,3aR)-7-[4-[4-[[1-(2-aminoacetyl)-4-piperidyl]-difluoro-methyl]-6-chloro-2-pyridyl]piperazin-1-yl]sulfonyl-3-(hydroxymethyl)-3a,4-dihydro-3H-oxazolo[4,3-c][1,4]benzoxazin-1-one] | 0.61 µg/mL (≈ 0.909 µM) |  | 12.2 mL/min/kg |  | 0.61 µg/mL (≈ 0.909 µM) |  |
| NCCC(=O)N1CCC(C(F)(F)c2cc(Cl)nc(N3CCN(S(=O)(=O)c4ccc5c(c4)OC[C@@H]4[C@H](CO)OC(=O)N54)CC3)c2)CC1 [Example 054, (3R,3aR)-7-[4-[4-[[1-(3-aminopropanoyl)-4-piperidyl]-difluoro-methyl]-6-chloro-2-pyridyl]piperazin-1-yl]sulfonyl-3-(hydroxymethyl)-3a,4-dihydro-3H-oxazolo[4,3-c][1,4]benzoxazin-1-one] | 0.62 µg/mL (≈ 0.905 µM) |  | 6.4 mL/min/kg |  | 0.62 µg/mL (≈ 0.905 µM) |  |
| NCCN1CCC(C(F)(F)c2cc(Cl)nc(N3CCN(S(=O)(=O)c4ccc5c(c4)OC[C@@H]4[C@H](CO)OC(=O)N54)CC3)c2)CC1 [Example 055, (3R,3aR)-7-[4-[4-[[1-(2-aminoethyl)-4-piperidyl]-difluoro-methyl]-6-chloro-2-pyridyl]piperazin-1-yl]sulfonyl-3-(hydroxymethyl)-3a,4-dihydro-3H-oxazolo[4,3-c][1,4]benzoxazin-1-one] | 0.3 µg/mL (≈ 0.457 µM) |  | 7.8 mL/min/kg |  | 0.3 µg/mL (≈ 0.457 µM) |  |
| NCC(=O)NCC(=O)N1CCC(C(F)(F)c2cc(Cl)nc(N3CCN(S(=O)(=O)c4ccc5c(c4)OC[C@@H]4[C@H](CO)OC(=O)N54)CC3)c2)CC1 [Example 057, N-[2-[4-[[2-[4-[[(3R,3aR)-3-(hydroxymethyl)-1-oxo-3a,4-dihydro-3H-oxazolo[4,3-c][1,4]benzoxazin-7-yl]sulfonyl]piperazin-1-yl]-6-chloro-4-pyridyl]-difluoro-methyl]-1-piperidyl]-2-oxo-ethyl]-2-amino-acetamide] | 0.66 µg/mL (≈ 0.906 µM) |  | 11.3 mL/min/kg |  | 0.66 µg/mL (≈ 0.906 µM) |  |
| C[N@@+]1(CC(N)=O)CCC[C@H]1C(=O)N[C@H]1CC[C@H](C(F)(F)c2cc(Cl)nc(N3CCN(S(=O)(=O)c4ccc5c(c4)OC[C@@H]4[C@H](CN)OC(=O)N54)CC3)c2)CC1 [Example 060, (1S,2S)—N-[4-[[2-[4-[[(3S,3aR)-3-(aminomethyl)-1-oxo-3a,4-dihydro-3H-oxazolo[4,3-c][1,4]benzoxazin-7-yl]sulfonyl]piperazin-1-yl]-6-chloro-4-pyridyl]-difluoro-methyl]cyclohexyl]-1-(2-amino-2-oxo-ethyl)-1-methyl-pyrrolidin-1-ium-2-carboxamide; chloride] | 0.51 µg/mL |  |  |  | 0.51 µg/mL | 6.2 mL/min/kg |
| C[N@+]1(CC(N)=O)CCC[C@H]1C(=O)N[C@H]1CC[C@H](C(F)(F)c2cc(Cl)nc(N3CCN(S(=O)(=O)c4ccc5c(c4)OC[C@@H]4[C@H](CN)OC(=O)N54)CC3)c2)CC1 [Example 061, (1R,2S)—N-[4-[[2-[4-[[(3S,3aR)-3-(aminomethyl)-1-oxo-3a,4-dihydro-3H-oxazolo[4,3-c][1,4]benzoxazin-7-yl]sulfonyl]piperazin-1-yl]-6-chloro-4-pyridyl]-difluoro-methyl]cyclohexyl]-1-(2-amino-2-oxo-ethyl)-1-methyl-pyrrolidin-1-ium-2-carboxamide;chloride] | 0.34 µg/mL |  |  |  | 0.68 µg/mL | 6.2 mL/min/kg |
| NC(=O)C[N+]1(CCNC(=O)[C@H]2CC[C@H](C(F)(F)c3cc(Cl)nc(N4CCN(S(=O)(=O)c5ccc6c(c5)OC[C@@H]5[C@H](CO)OC(=O)N65)CC4)c3)CC2)CCCC1.[Cl-] [Example 063, 4-[[2-[4-[[(3R,3aR)-3-(hydroxymethyl)-1-oxo-3a,4-dihydro-3H-oxazolo[4,3-c][1,4]benzoxazin-7-yl]sulfonyl]piperazin-1-yl]-6-chloro-4-pyridyl]-difluoro-methyl]-N-[2-[1-(2-amino-2-oxo-ethyl)pyrrolidin-1-ium-1-yl]ethyl]cyclohexanecarboxamide; chloride] | 2.01 µg/mL |  | 10.2 mL/min/kg |  | 2 µg/mL |  |
